The results in this text go back to patent publication US20220370384A1, “COMBINATIONS OF MEK INHIBITORS WITH CAP-DEPENDENT ENDONUCLEASE INHIBITORS” (priority 2019, published 2022).

Holding throughout (assay type): cell-based, influenza virus
The subject of experiment [1] is A/Mississippi/3/2001 (H1N1) mutant strain with the H275Y mutation in the NA gene.
For experiment [2], the system named is rgA/Victoria/3/75 (H3N2-PA-I38T).
Experiment [3] deals with rgA/Giessen/6/09 (H1N1)-PA-I38T.

Structures are written as SMILES.

In the case of `O=C(NOCC1CC1)c1ccc(F)c(F)c1Nc1ccc(I)cc1Cl` [CI-1040], the antiviral effectiveness entry in experiment [1] is “comparable antiviral effect”. For `CCOC(=O)C1=C[C@@H](OC(CC)CC)[C@H](NC(C)=O)[C@@H](N)C1` [oseltamivir], the antiviral effectiveness result in experiment [1] is recorded as “significant reduction in oseltamivir effectiveness”. With `O=C(O)c1ccc(F)c(F)c1Nc1ccc(I)cc1Cl` [ATR002, 2-(2-chloro-4-iodophenylamino)-N-3,4-difluoro benzoic acid], the antiviral activity result in experiment [2] is listed as “revealed its potency against both variants”. In addition, the “antiviral effect in mutant strain compared with wild type” value in experiment [3] is “steady effect as found in the wild type”. Consider `COC(=O)OCOc1c2n(ccc1=O)N([C@@H]1c3ccccc3SCc3c1ccc(F)c3F)[C@@H]1COCCN1C2=O` [BLXM], for which the “activity lost in the mutant variant” value in experiment [2] is “about 41%”. In addition, the “activity lower when investigated using the mutant strain” value in experiment [3] was 37%.
